Reference: publication PMC7577153, “Identification of Small-Molecule Inhibitors Targeting Porphyromonas gingivalis Interspecies Adherence and Determination of Their In Vitro and In Vivo Efficacies” (Antimicrobial Agents and Chemotherapy, 2020)
Where two headings read alike, the source gives them in different places. Marks after values point to notes of the source that are not given here.

Assays:
HL60 cells = conditions: 18 h
Experimental: (§1) The mouse macrophage cell line J774A.1 was grown in Dulbecco’s modified Eagle medium (DMEM) (Thermo Fisher Scientific, Waltham, MA) supplemented with 4.5 g/ml glucose, 10% fetal bovine serum (FBS), and 100 U/ml penicillin-streptomycin (Sigma-Aldrich, St. Louis, MO). HL60 (ATCC CCL240) cells were obtained from the American Type Culture Collection and cultured in Iscove’s modified Dulbecco’s medium (Sigma-Aldrich) supplemented with 20% fetal bovine serum (FBS) (Sigma-Aldrich).
(§2) The apoptotic activity of the compounds was determined using the phycoerythrin (PE) annexin V/dead cell apoptosis kit with Sytox green for flow cytometry (Invitrogen, Carlsbad, CA). Cells were grown in 12-well flat-bottom microtiter plates at an initial density 2 × 10^5 cells in 1.5-ml medium per well for 24 h. Following the incubation period, spent medium was replaced with fresh medium containing the desired concentration of the test compound and incubated for another 18 h. After trypsinization, cells were harvested by centrifuging at 250 × g for 4 min, and the cell pellet was suspended in 100 μl of binding buffer supplemented with 1 μl Sytox and 5 μl annexin V, followed by incubation at 37°C for 15 min. Samples were then diluted by adding 400-μl binding buffer, and flow cytometry was performed using a FACScalibur flow cytometer (Becton, Dickinson, Franklin Lakes, NJ), measuring the fluorescence emissions at 530 nm and 575 nm.

P. gingivalis virulence = assay: murine model of periodontitis (alveolar bone loss); type: in vivo, BALB/c/ByJ mice; conditions: for alveolar bone loss relative to sham-infected mice / alveolar bone loss versus infected untreated mice: mice infected with S. gordonii and P. gingivalis, compound 40 μM; for alveolar bone loss versus infected untreated mice: P < 0.001
Experimental: The in vivo activity of compounds N7, N17, and V8 was determined using a murine model of periodontitis as described by Deap et al. ([16]). […] Therefore, P. gingivalis virulence was assessed by alveolar bone loss, which was determined by measuring the distance from the alveolar bone crest (ABC) to the cemento enamel junction (CEJ).
The protocol used in this study (protocol 16486) was approved by the Institutional Animal Care and Use Committee at the University of Louisville under federal guidelines for the use and care of laboratory animals. Ten-week-old BALB/c/ByJ specific-pathogen-free mice were obtained from Jackson Laboratory (Bar Harbor, ME) and housed in the University of Louisville Research Resource Center animal facility. During the entire course of the study, mice were fed with Lab Diet 5001 (Purina Mills, LLC, Gray Summit, MO).
Oral infection of the mice was carried out essentially as described by Deap et al. ([18]). Prior to infection, mice were subjected to a combined antibiotic treatment for 10 days by providing animals with water ad libitum containing 800 μg/ml sulfamethoxazole (MP Biomedical, Solon, OH) and 400 μg/ml trimethoprim (Sigma, St. Louis, MO). Four days after the conclusion of the antibiotic treatment, mice were infected by oral gavage with 10^9 CFU of S. gordonii suspended in 2% carboxymethylcellulose (CMC; MP Biomedical) in sterile PBS using a 2.25-mm feeding needle (Popper and Son, Inc., New Hyde Park, NY). Infections were conducted every other day for a period of 10 days. Subsequently, mice were infected with 10^9 CFU P. gingivalis suspended in 2% CMC in PBS alone or in 2% CMC in PBS containing the small-molecule inhibitors every other day for 10 days. After the last infection with P. gingivalis, the mice were rested for 47 days and then euthanized by carbon dioxide asphyxiation.
To obtain the mouse skulls, the heads were removed and autoclaved for 15 min to remove flesh and musculature. The defleshed skulls were then immersed in 3% hydrogen peroxide overnight at room temperature to remove any remaining flesh. The skulls were submerged in deionized water to remove residual hydrogen peroxide, soaked in 1% bleach solution for 30 sec, sonicated at 14 V for 1 min, and washed again with deionized water. Samples were brushed using toothpaste, sonicated again in 1% bleach for an additional 30 sec at 14 V, and washed with water. The cleaned skulls were stained by immersion in 1% methylene blue for 15 sec, followed by washing with water until the excess dye was removed.
To measure alveolar bone loss, a dissecting microscope fitted with a video imaging marker measurement system (model VIA-170K; Fryer) was used. Bone loss was determined by measuring the distance between the alveolar bone crest (ABC) and cemento-enamel junction (CEJ) at eight sites on the buccal sides of both left and right maxillary molars. […] Data were analyzed using one-way analysis of variance (ANOVA; Graph Pad Prism, La Jolla, CA), and a pairwise parametric analysis of variance using a Bonferroni multiple-comparison posttest was used to determine the statistical difference among the individual mouse groups. A P value of ≤0.05 was considered statistically significant.

TIGK cells [1] = assay: total cellular ATP (CellTiterGlo); type: cell-based, human; conditions: 18 h, versus negative controls
Experimental: To determine the metabolic activity of cells, the total cellular ATP level was measured in cell culture samples using the CellTiterGlo reagent (Promega Inc. Madison, WI). Cells were grown as described above in the presence of the desired concentration of compounds. The spent medium was decanted, and cells were washed three times with PBS and subsequently incubated with 100 μl of the CellTiterGlo substrate. To facilitate the reaction, plates were incubated at room temperature for 2 min with shaking and for an additional 10 min without shaking. Total light production was measured using a Victor 3 multilabel plate reader (PerkinElmer).

TIGK cells [2] = conditions: 18 h
Experimental: as §1, §2

P. gingivalis = assay: microbicidal activity: growth curve in medium with compound; type: cell-based, Porphyromonas gingivalis; conditions: 40 μM, 24 h, OD600
Experimental: To confirm that N7, N17, and V8 function by inhibiting P. gingivalis adherence to S. gordonii rather than acting as antibacterial agents, the microbicidal activity of the compounds was determined by growing the organisms in medium containing 40 μM of each compound for 24 h. […] The structures of compounds N7, N17, and V8 are shown in Fig. 3A, B, and C, respectively. In addition, overlays of compound N17 with the NITVK motif and compound V8 with the VXXLL motif of Ag I/II are shown in Fig. 3D and E, respectively.
FIG 2 S. gordonii (A) and P. gingivalis (B) were grown for 24 h in medium containing 40 μM of each compound, and growth was quantified at various time points by measuring the OD600 for each culture. One-way analysis of variance (ANOVA) was performed to determine statistical significance.
P. gingivalis ATCC 33277 was cultured in reduced Trypticase soy broth-yeast extract (TSBY) medium comprised of 30 g/liter TSB (Difco Laboratories Inc., Detroit, MI), 5% (wt/vol) yeast extract supplemented with 5 mg/liter hemin and 1 mg/liter menadione under anaerobic conditions (10% CO2, 10% H2, and 80% N2) at 37°C for 48 h. Reduced TSBY medium was prepared by incubating the medium under anaerobic conditions at 37°C for 24 h prior to bacterial inoculation. Streptococcus gordonii DL1 was grown in brain heart infusion (BHI) (Difco Laboratories Inc.) broth supplemented with 5% (wt/vol) yeast extract under anaerobic conditions as described above.

J774A.1 cells = assay: LDH release (CytoTox 96); type: cell-based, mouse; conditions: 18 h
Experimental: The CytoTox 96 nonradioactive cytotoxicity assay (Promega Inc. Madison, WI) was used to determine extracellular lactate dehydrogenase activity (LDH) in TIGK, J774A.1, and HL60 cell cultures treated with the test compounds. […] After an 18-h incubation, the cell supernatant was collected by centrifugation at 250 × g for 4 min, and 50 μl of cell free supernatant was transferred into wells of a fresh 96-well microtiter plate. Subsequently, 50 μl of the LDH substrate was added in each well and incubated at room temperature for 30 min. Reactions were stopped by adding 50 μl of the stop solution according to the manufacturer’s protocol, and the endpoint was measured by determining optical density at 490 nm. Cells treated with culture medium containing 0.1% DMSO or with medium alone served as negative controls, and cells incubated with 15-μl lysis buffer (supplied by manufacturer) for 1 h served as a positive control for lysis. All samples were tested in triplicate.

Compound | Early apoptosis (%) (HL60 cells; HL60, 5 μM) | Late apoptosis/necrosis (%) (HL60 cells; HL60, 5 μM) | Live cells (%) (HL60 cells; HL60, 5 μM) | Early apoptosis (%) (HL60 cells; HL60, 20 μM) | Late apoptosis/necrosis (%) (HL60 cells; HL60, 20 μM) | Live cells (%) (HL60 cells; HL60, 20 μM) | Early apoptosis (%) (HL60 cells; HL60, 40 μM) | Late apoptosis/necrosis (%) (HL60 cells; HL60, 40 μM) | Live cells (%) (HL60 cells; HL60, 40 μM) | alveolar bone loss relative to sham-infected mice (P. gingivalis virulence) | alveolar bone loss versus infected untreated mice (P. gingivalis virulence) | cellular ATP levels (TIGK cells [1]) | Early apoptosis (%) (TIGK cells [2]; 5 μM) | Late apoptosis/necrosis (%) (TIGK cells [2]; 5 μM) | Live cells (%) (TIGK cells [2]; 5 μM) | Early apoptosis (%) (TIGK cells [2]; 20 μM) | Late apoptosis/necrosis (%) (TIGK cells [2]; 20 μM) | Live cells (%) (TIGK cells [2]; 20 μM) | Early apoptosis (%) (TIGK cells [2]; 40 μM) | Late apoptosis/necrosis (%) (TIGK cells [2]; 40 μM) | further results
Cl.N=c1n(CCN2CCCCC2)c2ccccc2n1CC(O)COc1ccc(Cl)cc1 (stereo not shown) [N7, 1-(4-chlorophenoxy)-3-{2-imino-3-[2-(piperidin-1-yl)ethyl]-2,3-dihydro-1H-1,3-benzodiazol-1-yl}propan-2-ol hydrochloride] | 3.6 | 7.8 | 87.4 | 20.9 | 43.9 | 27.3 | 7.7 | 70.8 | 18.9 | modest increase in bone loss relative to the sham-infected group | significant reduction in alveolar bone loss | significantly reduced cellular ATP levels | 2.4 | 8.3 | 86.8 | 1.0 | 14.9* % | 74.5 | 5.9 | 40.7* % | overt signs of distress or toxicity in treated mice (P. gingivalis virulence; transient exposure (∼20 min) during infection): did not exhibit any overt signs of distress or toxicity; Live cells (%) (TIGK cells [2]; 40 μM): 48.3%; growth curve versus medium alone or 0.1% DMSO (P. gingivalis): not significantly different; LDH release (J774A.1 cells; J774A.1 cells, 20 μM and 40 μM): significant increases
O=C(Nc1ccccc1O)c1cccc(N2C(=O)c3ccc(C(=O)Nc4ccccc4O)cc3C2=O)c1 [N17, N-(2-hydroxyphenyl)-2-{3-[(2-hydroxyphenyl)carbamoyl]phenyl}-1,3-dioxo-2,3-dihydro-1H-isoindole-5-carboxamide] | 2.7 | 4.7 | 91.3 | 2.2 | 6.0 | 90.3 | 2.3 | 6.3 | 91.6 | not significantly different from sham-infected animals | significant reduction in alveolar bone loss | did not significantly differ from the negative controls | 2.9 | 4.2 | 90.7 | 2.4 | 3.6% | 92.4 | 1.5 | 5.1% | Live cells (%) (TIGK cells [2]; 40 μM): 91.6%; growth curve versus medium alone or 0.1% DMSO (P. gingivalis): not significantly different; LDH release (J774A.1 cells; J774A.1 cells, 5, 20 and 40 μM): no significant effect
Cc1cc([C@H]2CCCN(CC(=O)NC3(C#N)CCCC3)C2)n[nH]1 [V8, N-(1-cyanocyclopentyl)-2-[3-(5-methyl-1H-pyrazol-3-yl)piperidin-1-yl] acetamide] | 2.9 | 5.6 | 91.8 | 3.7 | 5.0 | 91.3 | 2.4 | 6.7 | 88.4 | modest increase in bone loss relative to the sham-infected group | significant reduction in alveolar bone loss | did not significantly differ from the negative controls | 3.1 | 4.2 | 91.6 | 2.1 | 3.5% | 92.8 | 2.4 | 3.4% | Live cells (%) (TIGK cells [2]; 40 μM): 92.8%; growth curve versus medium alone or 0.1% DMSO (P. gingivalis): not significantly different; LDH release (J774A.1 cells; J774A.1 cells, 5, 20 and 40 μM): no significant effect
